Assay results as given in the NIST ThermoML archive (doi:10.1021/je049762q).

Assay: molar heat capacity at constant pressure
Conditions: 101.33 kPa

Clc1ccc(Cl)cc1 [1,4-dichlorobenzene]
Conditions | molar heat capacity at constant pressure [J/K/mol]
194.87 K, Crystal 3 | 102.23
195.23 K, Crystal 3 | 102.39
197.82 K, Crystal 3 | 103.42
198.11 K, Crystal 3 | 103.53
200 K, Crystal 3 | 104.28
200.75 K, Crystal 3 | 104.57
200.98 K, Crystal 3 | 104.65
203.66 K, Crystal 3 | 105.76
206.55 K, Crystal 3 | 106.91
209.43 K, Crystal 3 | 108.06
210 K, Crystal 3 | 108.29
212.28 K, Crystal 3 | 109.21
215.03 K, Crystal 3 | 110.08
215.12 K, Crystal 3 | 110.42
217.8 K, Crystal 3 | 111.29
217.94 K, Crystal 3 | 111.43
220 K, Crystal 3 | 112.15
220.54 K, Crystal 3 | 112.37
220.75 K, Crystal 3 | 112.46
223.28 K, Crystal 3 | 113.45
225.99 K, Crystal 3 | 114.54
226.32 K, Crystal 3 | 114.68
228.7 K, Crystal 3 | 115.59
229.08 K, Crystal 3 | 115.81
230 K, Crystal 3 | 116.16
231.39 K, Crystal 3 | 116.65
231.82 K, Crystal 3 | 116.88
234.07 K, Crystal 3 | 117.7
234.55 K, Crystal 3 | 117.96
236.73 K, Crystal 3 | 118.76
237.27 K, Crystal 3 | 119.01
239.38 K, Crystal 3 | 119.79
239.97 K, Crystal 3 | 119.98
240 K, Crystal 3 | 119.99
242.02 K, Crystal 3 | 120.79
242.66 K, Crystal 3 | 121.05
244.65 K, Crystal 3 | 121.76
245.34 K, Crystal 3 | 122.11
247.26 K, Crystal 3 | 122.73
248 K, Crystal 3 | 123.17
249.87 K, Crystal 3 | 123.71
250 K, Crystal 3 | 123.77
250.66 K, Crystal 3 | 124.06
252.46 K, Crystal 3 | 124.73
253.3 K, Crystal 3 | 125.12
255.04 K, Crystal 3 | 125.74
257.61 K, Crystal 3 | 126.76
260 K, Crystal 3 | 127.72
260.16 K, Crystal 3 | 127.77
262.71 K, Crystal 3 | 128.79
265.24 K, Crystal 3 | 129.78
267.76 K, Crystal 3 | 130.84
270 K, Crystal 3 | 131.65
270.28 K, Crystal 3 | 131.78
272.78 K, Crystal 3 | 132.68
275 K, Crystal 2 | 134.45
275 K, Crystal 3 | 133.61
280 K, Crystal 2 | 135.94
281.42 K, Crystal 2 | 136.31
283.88 K, Crystal 2 | 137.36
286.32 K, Crystal 2 | 138.34
290 K, Crystal 2 | 139.78
292.1 K, Crystal 2 | 140.78
293.87 K, Crystal 2 | 141.42
296.42 K, Crystal 2 | 142.86
298.15 K, Crystal 2 | 143.78
298.96 K, Crystal 2 | 144.24
300 K, Crystal 2 | 144.8
301.51 K, Crystal 2 | 145.69
306 K, Crystal 1 | 147.86
306 K, Crystal 2 | 147.75
308.59 K, Crystal 1 | 148.61
310 K, Crystal 1 | 149.45
311.33 K, Crystal 1 | 150.45
314.11 K, Crystal 1 | 151.51
316.65 K, Crystal 1 | 152.8
319.2 K, Crystal 1 | 154.18
320 K, Crystal 1 | 154.72
321.74 K, Crystal 1 | 155.8
326.24 K, Crystal 1 | 158
326.24 K, Liquid | 175.98
330 K, Liquid | 176.87
331.52 K, Liquid | 177.33
332.72 K, Liquid | 177.51
333.8 K, Liquid | 177.86
335.4 K, Liquid | 178.04
336.04 K, Liquid | 178.35
337.95 K, Liquid | 178.72
338.28 K, Liquid | 178.83
340 K, Liquid | 179.23
340.5 K, Liquid | 179.25
340.53 K, Liquid | 179.38
342.77 K, Liquid | 179.91
343.05 K, Liquid | 179.96
345.6 K, Liquid | 180.47
348.14 K, Liquid | 181.07
350 K, Liquid | 181.59
350.69 K, Liquid | 181.7
353.24 K, Liquid | 182.31
355.79 K, Liquid | 183.1
358.34 K, Liquid | 183.5
360 K, Liquid | 183.95
360.89 K, Liquid | 184.17
363.44 K, Liquid | 184.8
368.54 K, Liquid | 185.95
370 K, Liquid | 186.3
371.09 K, Liquid | 186.69
373.64 K, Liquid | 187.14
376.2 K, Liquid | 187.74
380 K, Liquid | 188.66
